The values that follow come from patent publication US20250206738A1, “WRN INHIBITORS” (Nimbus Wadjet, Inc., priority 2023, published 2025).

The subject of assay [1] is p21 induction in HCT 116 cells. In words: p21 induction in cells (In-Cell Western, p21/GAPDH ratio). The format is cell-based. The note with it: Homo sapiens, HCT-116, 24 h, 24 h compound incubation, read-out: P21_EC50. The gist of the method:
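HCT 116 cells treated 24 h at 37° C with 11-point, 2-fold dilutions starting typically at 10 μM, in duplicate. Fixed cells immunostained for p21 and GAPDH; 800/700 nm ratio normalised between DMSO and reference WRN inhibitor controls as percent activation. EC50 from non-linear regression.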

Assay [2] concerns the target T1, human Werner helicase (WRN, Uniprot Q14191, amino acids 517-1235 with L1074F point mutation; WRN-BV08) (Homo sapiens, UniProt Q14191, L1074F).
T1 construct: Uniprot Q14191, amino acids 517-1235 with L1074F point mutation; 8xHis (C, cleaved yes); TEV cleavage site (ENLYFQG) (C, cleaved yes); made in house; host or cells: Sf9 insect cells (baculovirus, pFastBac)
Nature of the assay: WRN (BV08) ADP-Glo assay. Type of assay: biochemical. The note with it: WRN-BV08 (aa 517-1235, L1074F); read-out: ADP-Glo_hWRN_IC50. The gist of the method:
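WRN 517-1235 (L1074F, untagged, Sf9-expressed), 0.15 nM, preincubated with compound 15 min at 25 °C, then 60 min with […] and 0.1 nM DNA duplex in Bicine pH 7.5, 1 mM MgCl2, 1% DMSO. ADP-Glo luminescence; % inhibition vs NSC-617145 control, four-parameter IC50 fit.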

T1 sequence (Q14191 with tags, fused parts or gaps L1074F): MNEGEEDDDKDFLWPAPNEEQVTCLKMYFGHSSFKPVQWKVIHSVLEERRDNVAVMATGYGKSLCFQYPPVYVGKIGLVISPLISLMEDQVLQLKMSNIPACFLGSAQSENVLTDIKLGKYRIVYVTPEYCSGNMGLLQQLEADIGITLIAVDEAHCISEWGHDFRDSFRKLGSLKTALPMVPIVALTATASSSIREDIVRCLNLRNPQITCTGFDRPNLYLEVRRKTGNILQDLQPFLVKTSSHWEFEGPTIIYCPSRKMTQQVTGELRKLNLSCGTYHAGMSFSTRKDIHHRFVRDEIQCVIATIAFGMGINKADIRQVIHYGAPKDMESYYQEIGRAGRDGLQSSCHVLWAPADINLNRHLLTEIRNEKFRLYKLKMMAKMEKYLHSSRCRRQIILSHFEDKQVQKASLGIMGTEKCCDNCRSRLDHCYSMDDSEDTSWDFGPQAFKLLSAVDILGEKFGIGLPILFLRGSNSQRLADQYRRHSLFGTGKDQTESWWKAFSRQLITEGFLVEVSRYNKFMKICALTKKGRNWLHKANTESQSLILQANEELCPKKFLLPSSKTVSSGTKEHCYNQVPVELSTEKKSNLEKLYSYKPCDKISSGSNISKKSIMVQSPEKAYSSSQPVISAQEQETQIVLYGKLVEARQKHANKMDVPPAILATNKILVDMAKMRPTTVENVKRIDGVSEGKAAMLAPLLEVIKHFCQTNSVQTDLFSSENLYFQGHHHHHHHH

For the molecule `CCc1c(N2CCN(C(=O)c3ncnc(C)c3O)[C@H]3CC[C@@H]32)c(=O)c2nc(N(C)C)cnc2n1CC(=O)NC12CC(C3CCC3)(C1)C2` [I-226, N-(3-cyclobutylbicyclo[1.1.1]pentan-1-yl)-2-(2-(dimethylamino)-6-ethyl-7-((1S,6S)-5-(5-hydroxy-6-methylpyrimidine-4-carbonyl)-2,5-diazabicyclo[4.2.0]octan-2-yl)-8-oxopyrido[2,3-b]pyrazin-5(8H)-yl)acetamide], in assay [1], the EC50 was at most 500 nM. In assay [2], the IC50 fell in the range of 5 to 50 nM.
In the same order, the values of `CCc1c(N2CCN(C(=O)c3ncnc(C)c3O)[C@H]3CC[C@@H]32)c(=O)c2nc(N(C)C)cnc2n1CC(=O)NC1CC2(CC(C)C2)C1` (stereo partly drawn) [I-238, 2-(2-(dimethylamino)-6-ethyl-7-((1S,6S)-5-(5-hydroxy-6-methylpyrimidine-4-carbonyl)-2,5-diazabicyclo[4.2.0]octan-2-yl)-8-oxopyrido[2,3-b]pyrazin-5(8H)-yl)-N-(6-methylspiro[3.3]heptan-2-yl)acetamide] are over 5000 nM and 50 to 100 nM.
In the same order, the values of `CCc1c(N2CCN(C(=O)c3c(O)ccc4ncoc34)CC2)c(=O)n2nc(-c3ccnc(OC)c3)nc2n1CC(=O)NC12CCC(C(F)(F)F)(CC1)CC2` [I-45, 2-(5-ethyl-6-(4-(6-hydroxybenzo[d]oxazole-7-carbonyl)piperazin-1-yl)-2-(2-methoxypyridin-4-yl)-7-oxo-[1,2,4]triazolo[1,5-a]pyrimidin-4(7H)-yl)-N-(4-(trifluoromethyl)bicyclo[2.2.2]octan-1-yl)acetamide] are 2000 to 5000 nM and 5 to 50 nM.
In the case of `CCc1c(N2CCN(C(=O)c3c(O)ccc4ncoc34)CC2)c(=O)n2nc(N(C)C)nc2n1CC(=O)NC12CC(C3CCC3)(C1)C2` [I-203, N-(3-cyclobutylbicyclo[1.1.1]pentan-1-yl)-2-(2-(dimethylamino)-5-ethyl-6-(4-(6-hydroxybenzo[d]oxazole-7-carbonyl)piperazin-1-yl)-7-oxo-[1,2,4]triazolo[1,5-a]pyrimidin-4(7H)-yl)acetamide], in assay [1], the EC50 is at most 500 nM. In addition, the IC50 in assay [2] is 5 to 50 nM.
The matching figures for `CCc1c(N2CCN(C(=O)c3ncnc(C)c3O)[C@H]3CC[C@@H]32)c(=O)n2c(=O)n(-c3ccnc(OC)c3)nc2n1CC(=O)NC12CC(C3CC3)(C1)C2` [I-209, N-(3-cyclopropylbicyclo[1.1.1]pentan-1-yl)-2-(7-ethyl-6-((1S,6S)-5-(5-hydroxy-6-methylpyrimidine-4-carbonyl)-2,5-diazabicyclo[4.2.0]octan-2-yl)-2-(2-methoxypyridin-4-yl)-3,5-dioxo-2,3-dihydro-[1,2,4]triazolo[4,3-a]pyrimidin-8(5H)-yl)acetamide]: at most 500 nM and 5 to 50 nM.
In the same order, the values of `CCc1c(N2CCN(C(=O)c3c(O)ccnc3OC)CC2)c(=O)n2nc(C3=CCOCC3)nc2n1CC(=O)NC12CC(C(F)(F)F)(C1)C2` [I-239, 2-(2-(3,6-dihydro-2H-pyran-4-yl)-5-ethyl-6-(4-(4-hydroxy-2-methoxynicotinoyl)piperazin-1-yl)-7-oxo-[1,2,4]triazolo[1,5-a]pyrimidin-4(7H)-yl)-N-(3-(trifluoromethyl)bicyclo[1.1.1]pentan-1-yl)acetamide] are over 5000 nM and 50 to 100 nM.
For the molecule `CCc1c(N2CCN(C(=O)c3ncnc(C)c3O)CC2)c(=O)n2nc(N(C)C)nc2n1CC(=O)NC12CC(C(F)(F)F)(C1)C2` [I-33, 2-(2-(dimethylamino)-5-ethyl-6-(4-(5-hydroxy-6-methylpyrimidine-4-carbonyl)piperazin-1-yl)-7-oxo-[1,2,4]triazolo[1,5-a]pyrimidin-4(7H)-yl)-N-(3-(trifluoromethyl)bicyclo[1.1.1]pentan-1-yl)acetamide], in assay [1], the EC50 was over 5000 nM. The IC50 in assay [2] was 100 to 500 nM.
In the same order, the values of `CCc1c(N2CCN(C(=O)c3ncccc3C(=O)O)[C@H]3CC[C@@H]32)c(=O)c2nn(-c3ccnc(OC)c3)nc2n1CC(=O)NC12CC(C(C)C)(C1)C2` [I-202, 2-((1S,6S)-5-(5-ethyl-4-(2-((3-isopropylbicyclo[1.1.1]pentan-1-yl)amino)-2-oxoethyl)-2-(2-methoxypyridin-4-yl)-7-oxo-4,7-dihydro-2H-[1,2,3]triazolo[4,5-b]pyridin-6-yl)-2,5-diazabicyclo[4.2.0]octane-2-carbonyl)nicotinic acid] are over 5000 nM and 5 to 50 nM.
In the same order, the values of `CCc1c(N2CCN(C(=O)c3c(O)ccc4ncoc34)CC2)c(=O)n2nc(C3=CCOCC3)nc2n1CC(=O)NC12CC(C3CC3)(C1)C2` [I-29, N-(3-cyclopropylbicyclo[1.1.1]pentan-1-yl)-2-(2-(3,6-dihydro-2H-pyran-4-yl)-5-ethyl-6-(4-(6-hydroxybenzo[d]oxazole-7-carbonyl)piperazin-1-yl)-7-oxo-[1,2,4]triazolo[1,5-a]pyrimidin-4(7H)-yl)acetamide] are at most 500 nM and 5 to 50 nM.
The matching figures for `CCc1c(N2CCN(C(=O)c3ncnc(C)c3O)CC2)c(=O)c2nc(-c3ccnc(OC)c3)oc2n1CC(=O)NC12CC(C(F)(F)F)(C1)C2` [I-16, 2-(5-ethyl-6-(4-(5-hydroxy-6-methylpyrimidine-4-carbonyl)piperazin-1-yl)-2-(2-methoxypyridin-4-yl)-7-oxooxazolo[5,4-b]pyridin-4(7H)-yl)-N-(3-(trifluoromethyl)bicyclo[1.1.1]pentan-1-yl)acetamide]: over 5000 nM and 5 to 50 nM.
As for `CCc1c(N2CCN(C(=O)c3ccccc3C(=O)O)[C@H]3CC[C@@H]32)c(=O)c2nn(-c3ccnc(OC)c3)nc2n1CC(=O)NC12CC(C(C)C)(C1)C2` [I-207, 2-((1S,6S)-5-(5-ethyl-4-(2-((3-isopropylbicyclo[1.1.1]pentan-1-yl)amino)-2-oxoethyl)-2-(2-methoxypyridin-4-yl)-7-oxo-4,7-dihydro-2H-[1,2,3]triazolo[4,5-b]pyridin-6-yl)-2,5-diazabicyclo[4.2.0]octane-2-carbonyl)benzoic acid], the EC50 in assay [1] was over 5000 nM. Besides, the IC50 in assay [2] was 5 to 50 nM.
As for `CCc1c(C2=CCN(C(=O)c3ncnc(C)c3O)CC2C)c(=O)c2nn(-c3ccnc(OC)c3)nc2n1CC(=O)NC12CC(C(C)C)(C1)C2` (single isomer, unassigned) [I-97], the EC50 in assay [1] is at most 500 nM. Besides, the IC50 in assay [2] was in the range of 5 to 50 nM.
With `CCc1c(N2CCN(C(=O)c3c(O)ccc4ncoc34)[C@H]3CC[C@@H]32)c(=O)c2nc(N(C)C)cnc2n1CC(=O)NC12CC(C(C)C)(C1)C2` [I-218, 2-(2-(dimethylamino)-6-ethyl-7-((1S,6S)-5-(6-hydroxybenzo[d]oxazole-7-carbonyl)-2,5-diazabicyclo[4.2.0]octan-2-yl)-8-oxopyrido[2,3-b]pyrazin-5(8H)-yl)-N-(3-isopropylbicyclo[1.1.1]pentan-1-yl)acetamide], the EC50 in assay [1] lay in the range of 500 to 2000 nM. Besides, the IC50 in assay [2] was 5 to 50 nM.
In the same order, the values of `CCc1c(N2CCN(C(=O)c3c(OC)ccnc3O)[C@H]3CC[C@@H]32)c(=O)c2nn(C3=CCOCC3)nc2n1CC(=O)NC12CC(C(C)C)(C1)C2` [I-205, 2-(2-(3,6-dihydro-2H-pyran-4-yl)-5-ethyl-6-((1S,6S)-5-(2-hydroxy-4-methoxynicotinoyl)-2,5-diazabicyclo[4.2.0]octan-2-yl)-7-oxo-2,7-dihydro-4H-[1,2,3]triazolo[4,5-b]pyridin-4-yl)-N-(3-isopropylbicyclo[1.1.1]pentan-1-yl)acetamide] are over 5000 nM and 5 to 50 nM.
`CCc1c(N2CCN(C(=O)c3c(O)ccc4ncoc34)CC2)c(=O)n2nc(-c3ccnc(OC)c3)nc2n1CC(=O)NC12COC(C(F)(F)F)(C1)C2` [I-44, 2-(5-ethyl-6-(4-(6-hydroxybenzo[d]oxazole-7-carbonyl)piperazin-1-yl)-2-(2-methoxypyridin-4-yl)-7-oxo-[1,2,4]triazolo[1,5-a]pyrimidin-4(7H)-yl)-N-(1-(trifluoromethyl)-2-oxabicyclo[2.1.1]hexan-4-yl)acetamide]: the EC50 in assay [1] was in the range of 2000 to 5000 nM. Moreover, the IC50 in assay [2] lay in the range of 5 to 50 nM.
The matching figures for `CCc1c(N2CCN(C(=O)c3c(O)ccc4ncoc34)CC2)c(=O)n2nc(-c3ccnc(OC)c3)nc2n1CC(=O)NC12CC(C(F)(F)C(F)F)(C1)C2` [I-41, 2-(5-ethyl-6-(4-(6-hydroxybenzo[d]oxazole-7-carbonyl)piperazin-1-yl)-2-(2-methoxypyridin-4-yl)-7-oxo-[1,2,4]triazolo[1,5-a]pyrimidin-4(7H)-yl)-N-(3-(1,1,2,2-tetrafluoroethyl)bicyclo[1.1.1]pentan-1-yl)acetamide]: at most 500 nM and 5 to 50 nM.
In the same order, the values of `CCc1c(N2CCN(C(=O)c3c(O)ccc4ncoc34)CC2)c(=O)n2nc(N(C)C)nc2n1CC(=O)NC12CC(C(C)C)(C1)C2` [I-43, 2-(2-(dimethylamino)-5-ethyl-6-(4-(6-hydroxybenzo[d]oxazole-7-carbonyl)piperazin-1-yl)-7-oxo-[1,2,4]triazolo[1,5-a]pyrimidin-4(7H)-yl)-N-(3-isopropylbicyclo[1.1.1]pentan-1-yl)acetamide] are 500 to 2000 nM and 5 to 50 nM.
